pIC50: −log10 of the molar value. Bridge positions count the residues as written; N and C are the ends. Peptide text beside a SMILES is read from it.
Tests used:
AIV H9N2 = test system: AIV H9N2; parameters: species or system avian influenza virus H9N2; conditions: in vivo
[1] = test system: avian influenza virus H9N2; assay type: cell-based
Streptavidin = Streptavidin (Streptomyces avidinii, UniProt P22629); assay type: binding
[2] = target: avian influenza virus (AIV) subtype H9N2, purified whole virus particles; assay: cell-based or functional assay

Chain of Streptavidin (P22629 25-183, species assumed): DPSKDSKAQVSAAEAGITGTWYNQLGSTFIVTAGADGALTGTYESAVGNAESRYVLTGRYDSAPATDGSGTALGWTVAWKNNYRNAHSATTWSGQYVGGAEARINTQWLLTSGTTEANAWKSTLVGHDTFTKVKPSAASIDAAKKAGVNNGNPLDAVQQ

| Compound | AIV titer in the allantoic fluid (haemagglutination titer) (AIV H9N2) | Agglutination of RBC (+AIV 32 HAU; 50 μl) [1] | Agglutination of RBC (−AIV 32 HAU; 50 μl) [1] | Frequency of sequences (%) (Streptavidin) | other results |
| --- | --- | --- | --- | --- | --- |
| C[C@@H](O)[C@@H]1NC(=O)[C@H](CCCCN)NC(=O)[C@H](CO)NC(=O)[C@H](CCCNC(=N)N)NC(=O)[C@H](Cc2ccccc2)NC(=O)[C@H](CC(=O)O)NC(=O)[C@H](CC(N)=O)NC(=O)[C@@H](N)CSSC[C@@H](C(=O)O)NC1=O [CNDFRSKTC] (H-CNDFRSKTC-OH; disulfide 1-9 (inferred); N-terminus and C-terminus assumed) | reduced the AIV titer | No and Yes | No |  | pIC50 (AIV H9N2; read-out: IC50, inhibition of propagation of AIV H9N2): > 4.00 |
| GLYNHPQ |  |  |  | 27 |  |
| HPQFLSL |  |  |  | 55 |  |
| NDFRSKT | reduced the AIV titer | No and Yes | No |  |  |
| synthetic linear peptide NDFRSKT |  |  |  |  | IC50 [2]: < 100 µM |

Source: patent US8883480B2 (priority 2008, dated 2014)
